Laboratory results reported in ChEMBL document CHEMBL2040771, “Discovery of a potent inhibitor of anaplastic lymphoma kinase with in vivo antitumor activity” (ACS Med Chem Lett, 2010).
Activity calls are given as the source filed them. The rule behind the calls is not given here.

What was measured:
[1] = Plasma clearance in SCID mouse at 1 mg/kg, iv by LC/MS/MS analysis; type: ADME, organism-based; design: dose 1 mg/kg, route intravenous
[2] = Volume of distribution in SCID mouse at 1 mg/kg, iv; type: ADME, organism-based; design: dose 1 mg/kg, route intravenous; conditions: in vivo
[3] = Growth inhibition of ALK-positive human SUP-M2 cells by MTS assay; type: functional, cell-based
[4] = molecular target: T1, ALK tyrosine kinase receptor (Homo sapiens, UniProt Q9UM73); experiment: Inhibition of NPM-ALK autophosphorylation in human KARPAS299 cells; type: cell-based; conditions: karpas-299
Insulin receptor = Insulin receptor (Homo sapiens, UniProt P06213); experiment: Inhibition of insulin receptor
SUP-M2 [5] = experiment: Induction apoptosis in ALK-positive human SUP-M2 cells assessed as activation of caspase 3/7 by fluorometric assay; type: functional, cell-based
K562 = experiment: Growth inhibition of ALK-negative human K562 cells up to 1 uM by MTS assay; type: functional, cell-based
KARPAS-299 = experiment: Growth inhibition of ALK-positive human KARPAS299 cells by MTS assay; type: functional, cell-based
Mus musculus [6] = experiment: Clearance with respect to hepatic blood flow in SCID mouse at 1 mg/kg, iv; type: ADME, organism-based, Liver; design: dose 1 mg/kg, route intravenous; conditions: in vivo
[7] = Oral bioavailability in SCID mouse at 10 mg/kg; type: ADME, organism-based; conditions: in vivo
Rattus norvegicus = experiment: Clearance with respect to hepatic blood flow in Sprague-Dawley rat at 1 mg/kg, iv; type: ADME, organism-based, Liver; design: dose 1 mg/kg, route intravenous; conditions: in vivo
[8] = Volume of distribution in Sprague-Dawley rat at 1 mg/kg, iv; type: ADME, organism-based; design: dose 1 mg/kg, route intravenous; conditions: in vivo
[9] = Tmax in Sprague-Dawley rat at 5 mg/kg, po; type: ADME, organism-based; design: dose 5 mg/kg, route oral; conditions: in vivo
[10] = molecular target: Serine/threonine-protein kinase PLK4 (Homo sapiens) (UniProt O00444); experiment: Inhibition of PLK4 at 1 uM
[11] = molecular target: Protein-tyrosine kinase 2-beta (Homo sapiens) (UniProt Q14289); experiment: Inhibition of PYK2 at 0.1 uM
[12] = molecular target: Proto-oncogene tyrosine-protein kinase ROS (Homo sapiens) (UniProt P08922); experiment: Inhibition of ROS at 0.1 uM
[13] = molecular target: Ribosomal protein S6 kinase alpha-1 (Homo sapiens) (UniProt Q15418); experiment: Inhibition of RPS6KA1 at 1 uM
[14] = molecular target: Ribosomal protein S6 kinase alpha-2 (Homo sapiens) (UniProt Q15349); experiment: Inhibition of RPS6KA2 at 1 uM
[15] = molecular target: Ribosomal protein S6 kinase alpha-2 (Homo sapiens) (UniProt Q15349); experiment: Inhibition of RPS6KA2 at 0.1 uM
[16] = molecular target: Serine/threonine-protein kinase 33 (Homo sapiens) (UniProt Q9BYT3); experiment: Inhibition of STK33 at 0.1 uM
[17] = molecular target: Non-receptor tyrosine-protein kinase TNK1 (Homo sapiens) (UniProt Q13470); experiment: Inhibition of TNK1 at 1 uM
[18] = molecular target: Non-receptor tyrosine-protein kinase TNK1 (Homo sapiens) (UniProt Q13470); experiment: Inhibition of TNK1 at 0.1 uM
[19] = molecular target: Dual specificity protein kinase TTK (Homo sapiens) (UniProt P33981); experiment: Inhibition of TTK at 0.1 uM
Mus musculus [20] = experiment: Toxicity in SCID mouse xenografted with human SUP-M2 cells at 55 mg/kg, po BID for 12 days; type: organism-based; design: dose 55 mg/kg, route oral; conditions: in vivo, 288 h
Mus musculus [21] = experiment: Toxicity in SCID mouse xenografted with human SUP-M2 cells assessed as weight loss at 30 mg/kg, po BID for 12 days; type: organism-based; design: dose 30 mg/kg, route oral; conditions: in vivo, 288 h
SUP-M2 [22] = experiment: Antitumor activity against ALK-positive human SUP-M2 cells xenografted in po dosed SCID mouse bid after 12 days; type: functional, organism-based
[23] = AUC in Sprague-Dawley rat at 5 mg/kg, po; type: ADME, organism-based; design: dose 5 mg/kg, route oral; conditions: plasma
[24] = Oral bioavailability in Sprague-Dawley rat at 5 mg/kg; type: ADME, organism-based; conditions: in vivo
[25] = Half life in beagle dog at 1 mg/kg, iv; type: ADME, organism-based, Canis lupus familiaris; design: dose 1 mg/kg, route intravenous; conditions: in vivo
Canis familiaris = experiment: Clearance with respect to hepatic blood flow in beagle dog at 1 mg/kg, iv; type: ADME, organism-based, Canis lupus familiaris, Liver; design: dose 1 mg/kg, route intravenous; conditions: in vivo
[26] = Volume of distribution in beagle dog at 1 mg/kg, iv; type: ADME, organism-based, Canis lupus familiaris; design: dose 1 mg/kg, route intravenous; conditions: in vivo
[27] = AUC in beagle dog at 10 mg/kg, po; type: ADME, organism-based, Canis lupus familiaris; design: dose 10 mg/kg, route oral; conditions: plasma
Mus musculus [28] = experiment: Antitumor activity in ALK-positive human SUP-M2 cells xenografted in SCID mouse assessed as inhibition of NPM-ALK autophosphorylation in tumor lysate at 30 mg/kg, po administered as single dose measured after 12 hrs; type: functional; conditions: SUP-M2, Neoplasm, read-out: TGI
[29] = Plasma concentration in SCID mouse xenografted with ALK-positive human SUP-M2 cells at 55 mg/kg, po bid for 12 days; type: ADME, organism-based; design: dose 55 mg/kg, route oral
[30] = Drug uptake in tumor lysates in SCID mouse xenografted with ALK-positive human SUP-M2 cells at 10 mg/kg, po bid for 12 days; type: ADME, organism-based, Neoplasm; design: dose 10 mg/kg, route oral; conditions: read-out: Drug uptake
[31] = Antitumor activity against ALK-positive human SUP-M2 cells xenografted in SCID mouse assessed as partial tumor regression at 30 mg/kg, po bid after 12 days; type: functional
[32] = molecular target: Tyrosine-protein kinase Fer (Homo sapiens) (UniProt P16591); experiment: Inhibition of FER at 0.1 uM
[33] = molecular target: Focal adhesion kinase 1 (Homo sapiens) (UniProt Q05397); experiment: Inhibition of FAK at 1 uM
[34] = molecular target: Focal adhesion kinase 1 (Homo sapiens) (UniProt Q05397); experiment: Inhibition of FAK at 0.1 uM
[35] = test system: Epidermal growth factor receptor (Homo sapiens), P00533 [L861Q]; experiment: Inhibition of EGFR L861Q mutant at 1 uM; type: protein assay
[36] = molecular target: Epidermal growth factor receptor (Homo sapiens) (UniProt P04626+P00533+Q15303+P21860); experiment: Inhibition of EGFR L747 to E749 deletion, A750P mutant at 0.1 uM; type: protein assay
[37] = molecular target: Macrophage colony-stimulating factor 1 receptor (Homo sapiens) (UniProt P07333); experiment: Inhibition of CSF1R at 0.1 uM
[38] = molecular target: NUAK family SNF1-like kinase 1 (Homo sapiens) (UniProt O60285); experiment: Inhibition of ARK5 at 1 uM
[39] = molecular target: Vascular endothelial growth factor receptor 3 (Homo sapiens) (UniProt P35916); experiment: Inhibition of FLT4 at 1 uM
[40] = molecular target: Cyclin-G-associated kinase (Homo sapiens) (UniProt O14976); experiment: Inhibition of GAK at 1 uM
[41] = molecular target: Cyclin-G-associated kinase (Homo sapiens) (UniProt O14976); experiment: Inhibition of GAK at 0.1 uM
[42] = molecular target: Mitogen-activated protein kinase 9 (Homo sapiens) (UniProt P45984); experiment: Inhibition of JNK2 at 0.1 uM
[43] = test system: Mast/stem cell growth factor receptor Kit (Homo sapiens), P10721 [D816V]; experiment: Inhibition of KIT D816V mutant at 0.1 uM
[44] = molecular target: Dual specificity mitogen-activated protein kinase kinase 1 (Homo sapiens) (UniProt Q02750); experiment: Inhibition of MEK1 at 1 uM
[45] = molecular target: Dual specificity mitogen-activated protein kinase kinase 1 (Homo sapiens) (UniProt Q02750); experiment: Inhibition of MEK1 at 0.1 uM
[46] = molecular target: Platelet-derived growth factor receptor beta (Homo sapiens) (UniProt P09619); experiment: Inhibition of PDGFRB at 1 uM
[47] = molecular target: T1, ALK tyrosine kinase receptor; conditions: 1 uM
Description: Inhibition of ALK at 1 uM

Ribosomal protein S6 kinase alpha-2 (Homo sapiens), sequence (Q15349 whole entry): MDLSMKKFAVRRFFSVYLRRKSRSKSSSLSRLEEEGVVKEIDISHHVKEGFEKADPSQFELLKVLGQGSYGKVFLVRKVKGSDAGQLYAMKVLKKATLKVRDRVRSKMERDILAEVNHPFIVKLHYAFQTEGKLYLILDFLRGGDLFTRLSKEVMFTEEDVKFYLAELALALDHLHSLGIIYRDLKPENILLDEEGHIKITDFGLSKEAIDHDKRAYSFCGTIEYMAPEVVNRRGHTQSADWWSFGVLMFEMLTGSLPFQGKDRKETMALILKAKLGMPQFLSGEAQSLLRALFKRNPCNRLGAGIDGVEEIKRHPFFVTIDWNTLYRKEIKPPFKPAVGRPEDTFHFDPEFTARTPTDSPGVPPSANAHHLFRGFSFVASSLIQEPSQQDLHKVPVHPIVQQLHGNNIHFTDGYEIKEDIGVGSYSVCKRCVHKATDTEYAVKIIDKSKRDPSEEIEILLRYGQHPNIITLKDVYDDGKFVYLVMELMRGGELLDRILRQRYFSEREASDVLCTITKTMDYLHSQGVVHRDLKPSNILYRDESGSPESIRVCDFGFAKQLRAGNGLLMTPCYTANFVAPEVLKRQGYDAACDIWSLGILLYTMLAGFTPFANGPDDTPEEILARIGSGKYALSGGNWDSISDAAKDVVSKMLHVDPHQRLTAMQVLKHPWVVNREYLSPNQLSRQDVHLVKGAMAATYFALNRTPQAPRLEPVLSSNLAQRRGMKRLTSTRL
Focal adhesion kinase 1 (Homo sapiens), sequence (Q05397 2-1052 limits assumed): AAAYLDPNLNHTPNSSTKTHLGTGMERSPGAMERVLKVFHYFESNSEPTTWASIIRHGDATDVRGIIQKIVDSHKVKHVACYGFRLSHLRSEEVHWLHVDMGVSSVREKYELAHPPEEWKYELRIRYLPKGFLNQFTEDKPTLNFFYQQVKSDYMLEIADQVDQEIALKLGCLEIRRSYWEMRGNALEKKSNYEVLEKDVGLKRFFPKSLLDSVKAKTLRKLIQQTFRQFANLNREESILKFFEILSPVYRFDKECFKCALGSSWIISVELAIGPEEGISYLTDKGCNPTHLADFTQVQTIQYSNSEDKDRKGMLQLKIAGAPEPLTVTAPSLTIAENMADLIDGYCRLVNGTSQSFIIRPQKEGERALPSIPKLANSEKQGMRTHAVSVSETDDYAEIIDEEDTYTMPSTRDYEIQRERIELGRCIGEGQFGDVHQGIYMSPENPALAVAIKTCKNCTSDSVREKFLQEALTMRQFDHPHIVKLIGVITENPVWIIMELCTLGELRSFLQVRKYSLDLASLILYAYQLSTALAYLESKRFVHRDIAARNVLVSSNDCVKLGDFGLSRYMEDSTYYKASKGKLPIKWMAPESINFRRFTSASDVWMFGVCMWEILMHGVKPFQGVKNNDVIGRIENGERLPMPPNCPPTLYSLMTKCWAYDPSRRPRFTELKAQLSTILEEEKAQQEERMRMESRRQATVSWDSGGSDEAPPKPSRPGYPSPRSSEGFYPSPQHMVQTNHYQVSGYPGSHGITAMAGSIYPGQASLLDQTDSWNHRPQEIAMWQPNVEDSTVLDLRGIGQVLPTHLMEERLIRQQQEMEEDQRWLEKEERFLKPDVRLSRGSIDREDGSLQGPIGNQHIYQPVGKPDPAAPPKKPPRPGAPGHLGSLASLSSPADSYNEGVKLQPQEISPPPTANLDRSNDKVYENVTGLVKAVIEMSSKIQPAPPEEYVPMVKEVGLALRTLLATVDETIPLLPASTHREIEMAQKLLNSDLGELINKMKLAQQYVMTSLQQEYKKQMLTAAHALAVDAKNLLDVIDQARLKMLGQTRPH
Non-receptor tyrosine-protein kinase TNK1 (Homo sapiens), sequence (Q13470 whole entry): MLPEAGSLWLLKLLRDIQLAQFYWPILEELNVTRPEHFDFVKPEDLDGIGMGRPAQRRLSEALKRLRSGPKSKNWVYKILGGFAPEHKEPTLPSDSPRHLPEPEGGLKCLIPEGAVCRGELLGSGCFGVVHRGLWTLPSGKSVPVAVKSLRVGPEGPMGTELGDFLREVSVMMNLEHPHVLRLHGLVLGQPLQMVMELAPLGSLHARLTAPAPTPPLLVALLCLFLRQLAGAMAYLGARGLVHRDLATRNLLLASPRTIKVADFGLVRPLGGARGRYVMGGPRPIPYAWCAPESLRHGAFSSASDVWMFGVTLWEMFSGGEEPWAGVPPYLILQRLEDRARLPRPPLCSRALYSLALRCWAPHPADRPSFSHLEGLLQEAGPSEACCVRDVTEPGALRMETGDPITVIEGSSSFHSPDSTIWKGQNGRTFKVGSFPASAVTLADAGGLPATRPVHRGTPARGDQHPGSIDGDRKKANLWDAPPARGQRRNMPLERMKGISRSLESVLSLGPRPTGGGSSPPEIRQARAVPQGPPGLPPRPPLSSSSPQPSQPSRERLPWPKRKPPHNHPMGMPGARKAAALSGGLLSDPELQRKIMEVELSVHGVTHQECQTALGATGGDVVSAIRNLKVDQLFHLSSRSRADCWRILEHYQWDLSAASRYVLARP
T1 sequence (Q9UM73 19-1620 limits assumed): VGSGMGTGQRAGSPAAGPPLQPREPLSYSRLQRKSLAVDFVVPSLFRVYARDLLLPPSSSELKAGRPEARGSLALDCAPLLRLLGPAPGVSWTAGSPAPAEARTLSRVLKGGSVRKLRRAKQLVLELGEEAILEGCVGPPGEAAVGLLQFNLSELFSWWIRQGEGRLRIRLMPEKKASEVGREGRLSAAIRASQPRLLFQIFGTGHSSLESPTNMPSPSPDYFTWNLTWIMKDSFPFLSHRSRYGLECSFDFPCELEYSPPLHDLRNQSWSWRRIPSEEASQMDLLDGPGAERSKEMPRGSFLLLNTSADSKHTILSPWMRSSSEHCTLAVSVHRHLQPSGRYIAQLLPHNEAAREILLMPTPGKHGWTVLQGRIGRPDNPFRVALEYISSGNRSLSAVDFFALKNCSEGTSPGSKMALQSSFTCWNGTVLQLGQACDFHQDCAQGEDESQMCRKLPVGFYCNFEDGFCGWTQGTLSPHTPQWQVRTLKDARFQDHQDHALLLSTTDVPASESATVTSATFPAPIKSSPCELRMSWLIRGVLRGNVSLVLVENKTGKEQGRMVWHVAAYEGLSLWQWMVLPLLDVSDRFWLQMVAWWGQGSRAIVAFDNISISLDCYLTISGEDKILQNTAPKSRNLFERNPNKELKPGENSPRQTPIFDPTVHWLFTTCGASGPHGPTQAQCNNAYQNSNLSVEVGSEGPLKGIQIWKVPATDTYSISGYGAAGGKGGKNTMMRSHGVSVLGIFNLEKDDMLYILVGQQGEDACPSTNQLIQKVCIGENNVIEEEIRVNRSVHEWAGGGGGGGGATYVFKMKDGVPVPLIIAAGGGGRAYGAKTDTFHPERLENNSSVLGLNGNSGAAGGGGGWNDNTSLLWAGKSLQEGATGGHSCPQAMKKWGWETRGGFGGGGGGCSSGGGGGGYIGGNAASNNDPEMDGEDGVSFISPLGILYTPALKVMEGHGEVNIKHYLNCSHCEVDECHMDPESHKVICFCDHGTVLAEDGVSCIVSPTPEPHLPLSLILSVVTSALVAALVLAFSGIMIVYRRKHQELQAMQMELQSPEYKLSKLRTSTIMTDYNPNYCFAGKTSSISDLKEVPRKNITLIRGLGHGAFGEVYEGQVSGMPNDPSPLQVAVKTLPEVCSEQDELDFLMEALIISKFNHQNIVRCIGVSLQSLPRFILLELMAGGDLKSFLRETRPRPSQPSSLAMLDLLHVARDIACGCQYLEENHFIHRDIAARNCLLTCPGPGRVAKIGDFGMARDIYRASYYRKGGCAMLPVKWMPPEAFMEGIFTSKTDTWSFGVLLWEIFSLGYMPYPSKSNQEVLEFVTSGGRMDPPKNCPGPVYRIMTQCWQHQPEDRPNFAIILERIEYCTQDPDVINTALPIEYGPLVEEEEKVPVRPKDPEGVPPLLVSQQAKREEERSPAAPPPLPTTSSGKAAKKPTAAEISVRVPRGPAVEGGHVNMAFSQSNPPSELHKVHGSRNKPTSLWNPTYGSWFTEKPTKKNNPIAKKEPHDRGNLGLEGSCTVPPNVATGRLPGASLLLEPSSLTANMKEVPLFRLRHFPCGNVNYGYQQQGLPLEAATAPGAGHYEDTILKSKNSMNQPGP
Dual specificity mitogen-activated protein kinase kinase 1 (Homo sapiens), sequence (Q02750 whole entry): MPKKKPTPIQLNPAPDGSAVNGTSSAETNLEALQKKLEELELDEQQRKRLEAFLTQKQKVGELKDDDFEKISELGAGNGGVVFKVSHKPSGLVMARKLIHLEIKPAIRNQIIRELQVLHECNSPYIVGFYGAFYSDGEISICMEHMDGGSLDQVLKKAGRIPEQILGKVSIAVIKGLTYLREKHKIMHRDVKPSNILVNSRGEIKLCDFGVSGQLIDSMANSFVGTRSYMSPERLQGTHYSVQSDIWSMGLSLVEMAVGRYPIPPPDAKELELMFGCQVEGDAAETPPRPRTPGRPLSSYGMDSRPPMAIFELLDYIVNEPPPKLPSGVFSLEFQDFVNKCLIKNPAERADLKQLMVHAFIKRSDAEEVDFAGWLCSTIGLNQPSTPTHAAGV
Mitogen-activated protein kinase 9 (Homo sapiens), sequence (P45984 whole entry, looked up): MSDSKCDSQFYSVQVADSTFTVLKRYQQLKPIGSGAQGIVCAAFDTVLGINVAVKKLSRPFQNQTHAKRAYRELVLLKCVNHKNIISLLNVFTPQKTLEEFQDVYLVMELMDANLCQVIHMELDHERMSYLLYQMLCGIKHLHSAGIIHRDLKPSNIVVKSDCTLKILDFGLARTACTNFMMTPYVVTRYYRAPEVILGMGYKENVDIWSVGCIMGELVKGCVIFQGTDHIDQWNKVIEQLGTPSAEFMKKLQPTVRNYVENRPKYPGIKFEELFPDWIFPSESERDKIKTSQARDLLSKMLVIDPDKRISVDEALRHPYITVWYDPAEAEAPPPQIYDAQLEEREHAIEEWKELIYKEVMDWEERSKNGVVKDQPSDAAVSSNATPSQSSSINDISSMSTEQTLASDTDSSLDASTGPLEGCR

- clearance [1]: 37 mL/min/kg
- Vd [2]: 0.9 L/kg
- IC50 [4]: 45 nM
- IC50 (Insulin receptor): 597 nM
- EC50 (KARPAS-299): 200 nM
- CL (Mus musculus [6]): 41%
- bioavailability [7]: 32%
- CL (Rattus norvegicus): 20%
- Vd [8]: 0.9 L/kg
- Tmax [9]: 48 min
- inhibition [10]: 95%
- inhibition [11]: 90%
- inhibition [12]: 77%
- inhibition [13]: 100%
- inhibition [14]: 100%
- inhibition [15]: < 50%
- inhibition [16]: 84%
- inhibition [17]: 100%
- inhibition [18]: 93%
- inhibition [19]: 96%
- AUC [23]: 4090 ng·h/mL
- bioavailability [24]: 64%
- half-life [25]: 66 min
- CL (Canis familiaris): 58%
- Vd [26]: 2.1 L/kg
- AUC [27]: 2480 ng·h/mL
- concentration at 288 h [29]: 3700 ng/mL
- concentration at 288 h [30]: 3560 ng/g
- inhibition [32]: 93%
- inhibition [33]: 99%
- inhibition [34]: 72%
- inhibition [35]: 93%
- inhibition [36]: < 50%
- inhibition [37]: < 50%
- inhibition [38]: 92%
- inhibition [39]: 100%
- inhibition [40]: 91%
- inhibition [41]: < 50%
- inhibition [42]: < 50%
- inhibition [43]: 94%
- inhibition [44]: 91%
- inhibition [45]: < 50%
- inhibition [46]: 98%
- inhibition [47]: 97%
SMILES: CCN1C(=O)CCCc2c1ccc(Nc1ncc(Cl)c(N[C@H]3[C@@H](C(N)=O)[C@@H]4C=C[C@H]3C4)n1)c2OC
- EC50 [3]: 200 nM
- Activity (SUP-M2 [5]): Active
- growth inhibition (GI) (K562): inactive
- Activity (Mus musculus [20]): Non-toxic
- Activity (Mus musculus [21]): Non-toxic
- Activity (SUP-M2 [22]): Dose-dependent effect
- inhibition in vivo at 30 mg/kg (Mus musculus [28]): > 80%
- Activity [31]: 100%
